# Target: human PDE10A2 (Homo sapiens (Human), UniProt Q9Y233)
# Assay: PDE10 fluorescence polarization (IMAP FP) inhibition assay
# Assay type: biochemical
# Settings: FAM-labeled cAMP 50 nM, room temperature, read-out: PDE10A Ki
# Procedure: The activity of the compounds in accordance with the present invention as PDE10 inhibitors may be readily determined without undue experimentation using a fluorescence polarization (FP) methodology that is well known in the art (Huang, W., et al., J. Biomol Screen, 2002, 7: 215).
# In a typical experiment the PDE10 inhibitory activity of the compounds of the present invention was determined in accordance with the following experimental method. PDE10A2 was amplified from human fetal brain cDNA (Clontech, Mountain View, Calif.) using a forward primer corresponding to nucleotides 56-77 of human PDE10A2 (Accession No. AF127480, Genbank Identifier 4894716), containing a Kozak consensus sequence, and a reverse primer corresponding to nucleotides 2406-2413 of human PDE10A2 (Accession No. AF127480, Genbank Identifier 4894716). Amplification with Easy-A polymerase (Stratagene, La Jolla, Calif.) was 95° C. for 2 minutes followed by thirty three cycles of 95° C. for 40 seconds, 55° C. for 30 seconds, and 72° C. for 2 minutes 48 seconds. Final extension was 72° C. for 7 minutes. The PCR product was TA cloned into pcDNA3.2-TOPO (Invitrogen, Carlsbad, Calif.) according to standard protocol. AD293 cells with 70-80% confluency were transiently transfected with human PDE10A2/pcDNA3.2-TOPO using Lipofectamine 2000 according to manufacturer specifications (Invitrogen, Carlsbad, Calif.). Cells were harvested 48 hours post-transfection and lysed by sonication (setting 3, 10×5 sec pulses) in a buffer containing 20 mM HEPES, 1 mM EDTA and protease inhibitor cocktail (Roche). Lysate was collected by centrifugation at 75,000×g for 20 minutes. Supernatant containing the cytoplasmic fraction was used for evaluation of PDE10A2 activity. The fluorescence polarization assay for cyclic nucleotide phosphodiesterases was performed using an IMAP® FP kit supplied by Molecular Devices, Sunnyvale, Calif. (product # R8139). IMAP® technology has been applied previously to phosphodiesterase assays (Huang, W., et al., J. Biomol Screen, 2002, 7: 215). Assays were performed at room temperature in 384-well microtiter plates with an incubation volume of 20.2 μL. Solutions of test compounds were prepared in DMSO and serially diluted with DMSO to yield 8 μL of each of 10 solutions differing by 3-fold in concentration, at 32 serial dilutions per plate. 100% inhibition is determined using a known PDE10 inhibitor, which can be any compound that is present at 5,000 times its Ki value in the assay described as follows, such as papaverine (see Siuciak, et al. Neuropharmacology (2006) 51:386-396; Becker, et al. Behav Brain Res (2008) 186(2):155-60; Threlfell, et al., J Pharmacol Exp Ther (2009) 328(3):785-795), 2-{4-[pyridin-4-yl-1-(2,2,2-trifluoroethyl)-1H-pyrazol-3-yl]phenoxymethyl}quinoline succinic acid or 2-[4-(1-methyl-4-pyridin-4-yl-1H-pyrazol-3-yl)-phenoxymethyl]quinoline succinic acid (see Schmidt, et al. J Pharmacol Exp Ther (2008) 325:681-690; Threlfell, et al., J Pharmacol Exp Ther (2009) 328(3): 785-795). 0% of inhibition is determined by using DMSO (1% final concentrations). A Labcyte Echo 555 (Labcyte, Sunnyvale, Calif.) is used to dispense 200 nL from each well of the titration plate to the 384 well assay plate. A solution of enzyme ( 1/1600 dilution from aliquots; sufficient to produce 20% substrate conversion) and a separate solution of FAM-labeled cAMP PDE from Molecular Devices (product # R7506), at a final concentration of 50 nM are made in the assay buffer (10 mM Tris HCl, pH 7.2, 10 mM MgCl2, 0.05% NaN3 0.01% Tween-20, and 1 mM DTT). The enzyme and the substrate are then added to the assay plates in two consecutive additions of 10 μL, and then shaken to mix. The reaction is allowed to proceed at room temperature for 30 minutes. A binding solution is then made from the kit components, comprised of 80% Solution A, 20% Solution B and binding reagent at a volume of 1/600 the total binding solution. […]
# Chain of human PDE10A2 (Q9Y233 267-1055): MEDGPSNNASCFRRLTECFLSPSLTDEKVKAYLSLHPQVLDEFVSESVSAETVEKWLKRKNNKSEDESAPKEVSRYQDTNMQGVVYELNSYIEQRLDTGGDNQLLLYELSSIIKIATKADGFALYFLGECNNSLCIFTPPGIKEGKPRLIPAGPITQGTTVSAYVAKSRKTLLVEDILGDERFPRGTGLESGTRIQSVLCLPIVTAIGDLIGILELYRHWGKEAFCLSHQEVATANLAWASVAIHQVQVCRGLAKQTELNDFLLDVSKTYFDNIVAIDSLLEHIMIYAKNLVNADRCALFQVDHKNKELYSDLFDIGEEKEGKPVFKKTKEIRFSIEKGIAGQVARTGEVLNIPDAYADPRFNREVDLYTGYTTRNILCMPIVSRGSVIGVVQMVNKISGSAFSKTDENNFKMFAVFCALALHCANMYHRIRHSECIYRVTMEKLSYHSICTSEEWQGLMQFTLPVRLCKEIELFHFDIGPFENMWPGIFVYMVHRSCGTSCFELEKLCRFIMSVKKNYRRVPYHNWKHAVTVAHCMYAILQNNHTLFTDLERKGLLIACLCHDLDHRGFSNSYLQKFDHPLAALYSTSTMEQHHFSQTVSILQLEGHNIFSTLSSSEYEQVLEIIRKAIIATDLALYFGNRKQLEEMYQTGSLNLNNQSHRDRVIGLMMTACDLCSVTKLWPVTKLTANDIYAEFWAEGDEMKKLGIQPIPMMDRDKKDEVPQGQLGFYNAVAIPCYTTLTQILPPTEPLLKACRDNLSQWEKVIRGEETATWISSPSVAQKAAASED
row,Structure (SMILES),Ki [nM]
1,"O=C(Nc1ccccc1)N1CCc2nc(-c3ccncc3)nc(NCCc3ccccn3)c2C1 [Compound 1-1, N-phenyl-2-pyridin-4-yl-4-[(2-pyridin-2-ylethyl)amino]-7,8-dihydropyrido[4,3-d]pyrimidine-6(5H)-carboxamide]",47.9
2,"O=C(Nc1ccccc1)N1CCc2nc(-c3ccncc3)nc(NCc3ccccn3)c2C1 [Compound 1-2, N-phenyl-2-pyridin-4-yl-4-[(pyridin-2-ylmethyl)amino]-7,8-dihydropyrido[4,3-d]pyrimidine-6(5H)-carboxamide]",192
3,"O=C(Nc1ccccc1)N1CCc2nc(-c3ccc(F)nc3)nc(NCCc3ccccn3)c2C1 [Compound 1-6, 2-(6-fluoropyridin-3-yl)-N-phenyl-4-[(2-pyridin-2-ylethyl)amino]-7,8-dihydropyrido[4,3-d]pyrimidine-6(5H)-carboxamide]",114
4,"CC(C)CC(=O)N1CCc2nc(-c3cncc(-c4cncnc4)c3)nc(N(C)Cc3ccccc3)c2C1 [Compound 1-7, 1-{4-[benzyl(methyl)amino]-2-[5-(pyrimidin-5-yl)pyridin-3-yl[-7,8-dihydropyrido]4,3-d]pyrimidin-6(5H)-yl}-3-methylbutan-1-one]",63
5,"CC(C)CC(=O)N1CCc2nc(-c3cncc(-c4cn[nH]c4)c3)nc(N(C)Cc3ccccc3)c2C1 [Compound 1-8, 1-{4-[benzyl(methyl)amino]-2-[5-(1H-pyrazol-4-yl)pyridin-3-yl]-7,8-dihydropyrido[4,3-d]pyrimidin-6(5H)-yl}-3-methylbutan-1-one]",15

# Further lines, results first:
row,Ki [nM],Structure (SMILES)
1,162,"O=C(Nc1ccccc1)N1CCc2nc(-c3ccncc3)nc(N3CCc4ccncc4C3)c2C1 [Compound 1-3, 4-(3,4-dihydro-2,7-naphthyridin-2(1H)-yl)-N-phenyl-2-pyridin-4-yl-7,8-dihydropyrido[4,3-d]pyrimidine-6(5H)-carboxamide]"
2,153,"COc1cccc(C2CN(c3nc(-c4cccnc4)nc4c3CN(C(=O)Nc3ccccc3)CC4)CCN2)c1 (stereo not drawn) [Compound 1-4, 4-[3-(3-methoxyphenyl)-piperazin-1-yl]-N-phenyl-2-pyridin-3-yl-7,8-dihydropyrido[4,3-d]pyrimidine-6(5H)-carboxamide]"
3,95.3,"COC(=O)NCCNc1nc(-c2cccnc2)nc2c1CN(C(=O)Nc1ccccc1)CC2 [Compound 1-5, methyl-(2-{[6-(anilinocarbonyl)-2-pyridin-3-yl-5,6,7,8-tetrahydropyrido[4,3-d]pyrimidin-4-yl]amino}ethyl)carbamate]"
4,2.19,"O=C(Nc1ccccc1)N1CCc2nc(-c3cccnc3)nc(NCc3c[nH]c(-c4ccccc4)n3)c2C1 [Compound 1-9, N-phenyl-4-{[(2-phenyl-1H-imidazol-4-yl)methyl]amino}-2-(pyridin-3-yl)-7,8-dihydropyrido[4,3-d]pyrimidine-6(5H)-carboxamide]"
